Laboratory results published in patent publication US20260097049A1, “C[…] AND METHODS OF USE FOR TREATMENT AND PREVENTION OF CANCER” (BlackStone Therapeutics, LLC, priority 2022, published 2026).
Like-named read-outs stand apart in the source and are kept apart here.

Legend:
Type in all cases: cell-based
[1] = tested on: A549 Lung Carcinoma Epithelial Cells (CCL-185 from ATCC); experiment: Percent viability of lung carcinoma cells; conditions: for cell viability, comparison in words (figure legends): FIGS. 39, 42, 43; for viability at 1.56 µM / viability at 3.12 µM / viability at 6.25 µM / viability at 12.5 µM / viability at 25 µM / viability at 50 µM: Homo sapiens
Protocol: GR-X1=H4CBDV, GR-X2=(R)-H4CBD, GR-X3=(S)-H4CBD, GR-X4=HHC.
The IC50 of the hydrogenated cannabivarin, hexahydrocannabidivarin (H4CBDV), (R)-H4CBD, (S)-H4CBD, HHC racemic mixture, and gemcitabine, paclitaxel, and 5-fluorouracil were determined in lung carcinoma cells (A549 Lung Carcinoma Epithelial Cells (CCL-185 from ATCC)) as shown in FIGS. 39-43 and Table 3.

[2] = tested on: MIA-PaCa2; experiment: IC50 in cell lines (Table 4), MIA-PaCa2; conditions: Homo sapiens, MIA PaCa-2
Protocol: (§1) Various compounds, including (R)-H4CBD and (S)-H4CBD, and H4CBDV racemic mixture, were tested for cell killing against various cancer cell lines, including PANC-1, HPAF-II, AsPC-1, and MIA-PaCa2.
(§2) Table 4 summarizes the measured IC50 for specific compounds in the indicated cell types.

[3] = tested on: HPAFII; experiment: IC50 in cell lines (Table 4), HPAFII; conditions: Homo sapiens, HPAF-II
Protocol: as §1, §2

[4] = tested on: AsPC-1; experiment: IC50 in cell lines (Table 4), AsPC-1; conditions: Homo sapiens, ASPC1
Protocol: as §1, §2

[5] = tested on: PANC1; experiment: IC50 in cell lines (Table 4), PANC1; conditions: Homo sapiens, PANC-1
Protocol: as §1, §2

[6] = tested on: PANC-1; experiment: CellTiterGlo cell viability, PANC-1 cells; conditions: Homo sapiens, 72 h
Protocol: (§3) The IC50 values for (R)-H4CBD, (S)-H4CBD, H4CBDV racemic mixture, and bortezomib were determined. Compound treatment of cells started one day after seeding with a final DMSO concentration of 0.1% and was performed by nanodrop-dispensing using a Tecan Dispenser. 0.1% DMSO (solvent) and Staurosporine (1,0E-05M) served as high control (100% viability) and low control (0% viability), respectively. For the assays, cells were seeded in white cell culture-treated flat and clear bottom multiwell plates and incubated at 37° C. overnight before compounds were added. After incubation for 72 h at 37° C. at 5% or 10% CO2 dependent on the medium, cell plates were equilibrated to room temperature for one hour, CellTiterGlo reagent (Promega) was added and luminescence was measured approximately an hour later using a luminometer.
(§4) Raw data were converted into percent cell viability relative to the high and low control, which were set to 100% and 0%, respectively. IC50 calculation was performed using GraphPad Prism software with a variable slope sigmoidal response fitting model using 0% viability as bottom constraint and 100% viability as top constraint. IC50 results in PANC-1, MIA-PaCa2, and AsPC-1 cells for (R)-H4CBD, (S)-H4CBD, H4CBDV racemic mixture, and bortezomib are shown in FIGS. 10-12 and Table 2

[7] = tested on: AsPC-1; experiment: CellTiterGlo cell viability, AsPC-1 cells; conditions: Homo sapiens, ASPC1, 72 h
Protocol: as §3, §4

[8] = tested on: MiaPaCA-2; experiment: CellTiterGlo cell viability, MiaPaCA-2 cells; conditions: Homo sapiens, MIA PaCa-2, 72 h
Protocol: as §3, §4

[9] = tested on: hepatocytes; experiment: Cytotoxicity in hepatocytes; conditions: at 50 μM
Protocol: (§5) At 50 μM, 74.8% of human fibroblasts died and 8% of hepatocytes.

[10] = tested on: human fibroblasts; experiment: Cytotoxicity in human fibroblasts
Protocol: as §5

[11] = target: hERG (Homo sapiens, UniProt Q12809); experiment: hERG assay
hERG, sequence (Q12809 whole entry): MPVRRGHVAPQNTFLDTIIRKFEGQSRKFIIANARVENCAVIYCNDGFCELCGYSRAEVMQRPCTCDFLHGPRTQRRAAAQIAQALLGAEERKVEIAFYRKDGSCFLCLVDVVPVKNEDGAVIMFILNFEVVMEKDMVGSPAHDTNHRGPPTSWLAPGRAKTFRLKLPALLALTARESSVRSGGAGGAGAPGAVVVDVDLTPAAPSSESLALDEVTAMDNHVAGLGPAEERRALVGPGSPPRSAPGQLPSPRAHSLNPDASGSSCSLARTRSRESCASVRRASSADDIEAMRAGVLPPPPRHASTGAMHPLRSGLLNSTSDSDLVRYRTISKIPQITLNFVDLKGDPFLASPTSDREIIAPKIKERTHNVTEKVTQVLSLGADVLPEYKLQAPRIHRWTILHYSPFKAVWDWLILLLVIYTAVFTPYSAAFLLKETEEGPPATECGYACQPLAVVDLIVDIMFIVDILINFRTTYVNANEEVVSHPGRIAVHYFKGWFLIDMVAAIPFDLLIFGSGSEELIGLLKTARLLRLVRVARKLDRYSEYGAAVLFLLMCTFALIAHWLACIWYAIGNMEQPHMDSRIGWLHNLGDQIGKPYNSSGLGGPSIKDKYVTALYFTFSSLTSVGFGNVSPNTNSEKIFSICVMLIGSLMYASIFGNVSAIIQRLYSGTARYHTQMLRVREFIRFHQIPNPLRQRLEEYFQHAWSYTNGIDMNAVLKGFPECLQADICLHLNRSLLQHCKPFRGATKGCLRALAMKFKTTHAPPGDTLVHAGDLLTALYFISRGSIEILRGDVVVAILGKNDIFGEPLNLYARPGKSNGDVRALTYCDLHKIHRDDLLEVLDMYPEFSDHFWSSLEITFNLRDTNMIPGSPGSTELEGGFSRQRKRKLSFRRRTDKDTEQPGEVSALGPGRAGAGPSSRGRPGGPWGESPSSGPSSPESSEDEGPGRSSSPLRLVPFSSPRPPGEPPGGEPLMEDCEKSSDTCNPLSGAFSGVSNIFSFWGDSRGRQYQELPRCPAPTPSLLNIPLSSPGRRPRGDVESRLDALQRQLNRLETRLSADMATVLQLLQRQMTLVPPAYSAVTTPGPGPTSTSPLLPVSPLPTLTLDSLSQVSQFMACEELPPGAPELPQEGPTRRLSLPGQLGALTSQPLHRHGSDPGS
Protocol: as §5

[12] = Ames test
[13] = A549, agent concentration 1.56 uM, read-out: Percent viability of cells, Mean (%)
[14] = A549, agent concentration 3.12 uM, read-out: Percent viability of cells, Mean (%)
[15] = A549, agent concentration 6.25 uM, read-out: Percent viability of cells, Mean (%)
[16] = A549, agent concentration 12.5 uM, read-out: Percent viability of cells, Mean (%)
[17] = A549, agent concentration 25 uM, read-out: Percent viability of cells, Mean (%)
[18] = A549, agent concentration 50 uM, read-out: Percent viability of cells, Mean (%)
[19] = A549, read-out: Percent viability of cells, Mean (%)

## O=c1[nH]cc(F)c(=O)[nH]1 [5-fluorouracil, reference compound]
[1]
  cell viability, comparison in words (figure legends): presented the best cell viability when compared to the other two drugs, gemcitabine and paclitaxel

## CCCCCc1cc(O)c2c(c1)OC(C)(C)C1CC[C@@H](C)CC21 (stereo partly drawn) [CCL-101, 9R-Hexahydrocannabinol]
[2]
  IC50: 0.0127 mM
[3]
  IC50: 0.00884 mM
[4]
  IC50: 0.0166 mM
[5]
  IC50: 0.00908 mM

## CCCCCc1cc(O)c(C2C[C@H](C)CCC2C(C)C)c(O)c1 (some centres unmarked) [R- H4CBDV]
[1]; [13]
  viability at 1.56 µM: 92.3%
[1]; [14]
  viability at 3.12 µM: 86.7%
[1]; [15]
  viability at 6.25 µM: 86%
[1]; [16]
  viability at 12.5 µM: 45%
[1]; [17]
  viability at 25 µM: 14%
[1]; [18]
  viability at 50 µM: 4.18%

## CC(C)C[C@H](NC(=O)[C@H](Cc1ccccc1)NC(=O)c1cnccn1)B(O)O [Bortezomib, reference compound]
[6]
  IC50: 0.0134 µM
[7]
  IC50: 0.0334 µM
[8]
  IC50: 0.0149 µM

## CCCCCc1cc(O)c(C2C[C@H](C)CCC2C(C)C)c(O)c1 (stereo partly drawn) [CCL-111, (R)-H4CBD]
[6]
  IC50: 5.29 µM
[7]
  IC50: 4.85 µM
[8]
  IC50: 3.24 µM

## CCCc1cc(O)c2c(c1)OC(C)(C)C1CCC(C)CC21 (racemic) [CCL-103, HHCV]
[2]
  IC50: 0.0197 mM
[5]
  IC50: 0.00507 mM

## CCCCCc1cc(O)c2c(c1)OC(C)(C)C1CCC(C)CC21 (racemic) [CCL-113, hexahydrocannabinol]
[9]
  hepatocytes died: 8%
[10]; Homo sapiens, Fibroblast
  IC50: 14.4 µM
[10]; at 50 μM
  human fibroblasts died: 74.8%
[11]
  cytotoxicity in hERG assay: did not show cytotoxicity
[12]
  cytotoxicity in Ames test: did not show cytotoxicity
[1]
  cell viability, comparison in words (figure legends): the only compound that presented higher cell viability from 25 μM
[1]; [19]
  viability at 1.56 µM: 92.5%
  viability at 3.12 µM: 92.9%
  viability at 6.25 µM: 95.6%
  viability at 12.5 µM: 96.1%
  viability at 25 µM: 81.6%
  viability at 50 µM: 22.1%

## CCCCCc1cc(O)c2c(c1)OC(C)(C)C1CC[C@H](C)CC21 (stereo partly drawn) [CCL-102, 9S-Hexahydrocannabinol]
[2]
  IC50: 0.0272 mM
[3]
  IC50: 0.00702 mM
[4]
  IC50: 0.0115 mM
[5]
  IC50: 0.0172 mM

## CCCCCc1cc(O)c(C2C[C@@H](C)CCC2C(C)C)c(O)c1 (stereo partly drawn) [CCL-112, (S)-H4CBD]
[6]
  IC50: 8.02 µM
[7]
  IC50: 6.17 µM
[8]
  IC50: 4.77 µM

## CC(=O)O[C@H]1C(=O)[C@@]2(C)[C@H]([C@H](OC(=O)c3ccccc3)[C@]3(O)C[C@H](OC(=O)[C@H](O)[C@@H](NC(=O)c4ccccc4)c4ccccc4)C(C)=C1C3(C)C)[C@]1(OC(C)=O)CO[C@@H]1C[C@@H]2O [paclitaxel, reference compound]
[1]
  cell viability, comparison in words (figure legends): higher cytotoxicity at a lower concentration than 5-flurouracil

## CCCCCCCc1cc(O)c(C2CC(C)CCC2C(C)C)c(O)c1 (racemic) [CCL-105, H4CBDP]
[2]
  IC50: 0.0061 mM
[5]
  IC50: 0.00255 mM

## CCCCCc1cc(O)c(C2C[C@@H](C)CCC2C(C)C)c(O)c1 (some centres unmarked) [S- H4CBDV]
[1]; [13]
  viability at 1.56 µM: 94.2%
[1]; [14]
  viability at 3.12 µM: 99.6%
[1]; [15]
  viability at 6.25 µM: 94.1%
[1]; [16]
  viability at 12.5 µM: 81.3%
[1]; [17]
  viability at 25 µM: 13.8%
[1]; [18]
  viability at 50 µM: 1.53%
